Reference: patent US20220338473A1, “USE OF BENZYL ALCOHOL AS A HERBICIDE” (INNOVI, priority 2019, published 2022)

What was measured:
Type in all cases: in vivo
[1] = tested on: Chenopodium album (CHEAL); experiment: Systemic action through contact with the leaves: metabolic activity by epifluorescence microscopy; conditions: 20 L/ha, control group 5
Method: Chenopodium album (CHEAL) seeds are sown in Petri dishes in vermiculite moistened with a 0.2% solution of […]. The dishes are incubated in a climatic chamber at 15° C./20° C. night/day and 14 h photoperiod up to the stage of emergence of the cotyledons. The plantlets are then transplanted, at a rate of 6 plants per pot and 5 pots in each of the groups (treated group and control group), in a mixture of agricultural earth:vermiculite (50:50).
The plantlets are cultivated under the same environmental conditions as previously up to the stage BBCH12-14.
The plants are treated with benzyl alcohol at the stage BBCH12-14 with a dose of 20 L/ha benzyl alcohol with 660 g/I water, i.e. 13.2 kg benzyl alcohol/ha.
The product is applied in a volume corresponding to 300 L/ha using a spraying bench equipped with agricultural nozzles (Turbo Teejet TTII0015).
After treatment, the plants are returned to cultivation in a climatic chamber at 15° C./20° C. night/day and 14 h photoperiod.
A control group is not treated and only receives water.
[…] observations were carried out by epifluorescence microscopy on the leaves and the roots of the treated plants and the control plants, 24 h and 7 days after treatment on the leaves.
The results observed on the epifluorescence microscopy images are reported in Tables 11 and 12 below, in which a mark of 0 to 5 is attributed depending on the intensity and the surface area of the fluorescence observed, where 0=no metabolic activity, and 5=complete metabolic activity.
Before uprooting and epifluorescence microscopy analysis, the treated plants were divided into 2 groups: • Group 1: plants not showing or showing few symptoms of drying on the treated area (leaf) • Group 2: plants having a dry leaf on the treated area (leaf)

[2] = tested on: Clover; experiment: Non-selective activity on herbaceous plants (spraying, potted); conditions: 4 g benzyl alcohol (200 L/Ha) in 8 g total (400 L/Ha)
Method: (§1) The non-selective character of benzyl alcohol was studied on 3 common varieties of herbaceous plants, two dicotyledons (dandelions and clover) and a monocotyledon (grass).
(§2) The assays were carried out on potted plants. The application of the product is carried out with a trigger spray bottle which makes it possible to spray 1 g of product per spraying, as microdroplets.
(§3) The treated plants are sprinkled with different quantities of water comprising different quantities of pure benzyl alcohol (PanReac AppliChem—ITW Reagents). The untreated (control) plants are sprinkled with the same total quantity of water only.
(§4) The plants are observed at the following times: T0, 6 h, 24 h, 48 h, 72 h, 96 h. The collapsing of the plant, the colour intensity and the diameter of the plant were measured as indicated in Example 1.

[3] = tested on: Dandelion; experiment: as above; conditions: 4 g benzyl alcohol (200 L/Ha) in 8 g total (400 L/Ha)
Method: as §1, §2, §3, §4

[4] = tested on: Grass; experiment: Preventative herbicide activity by sprinkling of the soil; design: key to Plants sprouted despite the preventative treatment: yes: the areas where the plants have sprouted despite the preventative treatment; no: the areas where the preventative treatment made it possible to prevent the sprouting of the identified plants; conditions: for Plants sprouted despite the preventative treatment: soil sprinkling
Method: (§5) Areas identified as each year showing the presence of couch grass, grass, bindweeds and thistles were treated preventatively. […] The results are reported in Table 6 below, in which the note “yes” indicates the areas where the plants have sprouted despite the preventative treatment, and the note “no” indicates the areas where the preventative treatment made it possible to prevent the sprouting of the identified plants.

[5] = tested on: Couch grass; experiment: as above; design: key to Plants sprouted despite the preventative treatment: yes: the areas where the plants have sprouted despite the preventative treatment; no: the areas where the preventative treatment made it possible to prevent the sprouting of the identified plants; conditions: for Plants sprouted despite the preventative treatment: soil sprinkling
Method: as §5

[6] = tested on: Bindweed; experiment: as above; design: key to Plants sprouted despite the preventative treatment: yes: the areas where the plants have sprouted despite the preventative treatment; no: the areas where the preventative treatment made it possible to prevent the sprouting of the identified plants; conditions: for Plants sprouted despite the preventative treatment: soil sprinkling
Method: as §5

[7] = tested on: Thistle; experiment: as above; design: key to Plants sprouted despite the preventative treatment: yes: the areas where the plants have sprouted despite the preventative treatment; no: the areas where the preventative treatment made it possible to prevent the sprouting of the identified plants; conditions: for Plants sprouted despite the preventative treatment: soil sprinkling
Method: as §5

[8] = tested on: Lobelia; experiment: Foliar application (spraying) on potted plants; conditions: 6 g benzyl alcohol (300 L/Ha) in 6 g total (300 L/ha)
Method: Assays were carried out on different plants by foliar application (spraying) to evaluate the herbicide function, its foliar application mode and its speed of action.
The assays were carried out on potted plants. The application of the product is carried out with a trigger spray bottle which makes it possible to spray 1 g of product per spraying as microdroplets.
The plants were sprinkled with different quantities of water containing different quantities of pure benzyl alcohol (PanReac AppliChem—ITW Reagents). The untreated (control) plants are sprinkled with the same total quantity, but of water only.
The collapsing of the plant, the colour intensity of the plant and the diameter of the plant were measured in the following manner: • Collapsing of the plant: the collapsing was evaluated on a scale of 1 to 5. A score of 5 corresponds to the state of the plant habit at T0 and 1 corresponds to a total collapsing of the plant. • Colour intensity: the colour of the plant (leaves and flowers) is evaluated on a scale of 1 to 5. A score of 5 corresponds to the colour intensity of the plant at T0 and a score of 1 corresponds to a total discoloration of the plant (white or brown according to the type of plant). • Diameter of the plant: the diameter of the plant corresponds to the surface area occupied by the plant seen from above and is evaluated by a score of 1 to 5. A score of 5 corresponds to the diameter of the plant at T0 and a score of 1 corresponds to the size of the pot (or smaller than this).

[9] = 24 h after leaf spraying, Group 1 (no or few symptoms of drying)
[10] = 24 h after leaf spraying, Group 2 (dry leaf on treated area)
[11] = 7 days after leaf spraying, Group 1 (no or few symptoms of drying)
[12] = 7 days after leaf spraying, Group 2 (dry leaf on treated area)

OCc1ccccc1 [benzyl alcohol]
Metabolic activity on the leaves (mark 0 to 5; 0=no, 5=complete metabolic activity) [1, 9]: 1 | Metabolic activity on the roots (mark 0 to 5; 0=no, 5=complete metabolic activity) [1, 9]: 2 | Metabolic activity on the leaves (mark 0 to 5; 0=no, 5=complete metabolic activity) [1, 10]: 1 | Metabolic activity on the roots (mark 0 to 5; 0=no, 5=complete metabolic activity) [1, 10]: 2.5 | Metabolic activity on the leaves (mark 0 to 5; 0=no, 5=complete metabolic activity) [1, 11]: 0.5 | Metabolic activity on the roots (mark 0 to 5; 0=no, 5=complete metabolic activity) [1, 11]: 1.5 | Metabolic activity on the leaves (mark 0 to 5; 0=no, 5=complete metabolic activity) [1, 12]: 0 | Metabolic activity on the roots (mark 0 to 5; 0=no, 5=complete metabolic activity) [1, 12]: 2 | Collapsing (score and time): time to pass from score 5 (T0) to score 1 [2]: 1 to 48 h | Colour intensity (score and time): time to pass from score 5 (T0) to score 1 [2]: 1 to 24 h | Diameter (score and time): time to pass from score 5 (T0) to score 1 [2]: 1 to 48 h | Collapsing (score and time): time to pass from score 5 (T0) to score 1 [3]: 1 to 48 h | Colour intensity (score and time): time to pass from score 5 (T0) to score 1 [3]: 1 to 24 h | Diameter (score and time): time to pass from score 5 (T0) to score 1 [3]: 1 to 48 h | Quantity of benzyl alcohol (sprinkling) that prevents sprouting ([4]; preventative soil sprinkling): 120 L/Ha | Plants sprouted despite the preventative treatment ([4]; 50 L/ha pure benzyl alcohol): yes | Plants sprouted despite the preventative treatment ([4]; 70 L/Ha pure benzyl alcohol): yes | Plants sprouted despite the preventative treatment ([4]; 110 L/Ha pure benzyl alcohol): yes | Plants sprouted despite the preventative treatment ([4]; 120 L/Ha pure benzyl alcohol): no | Plants sprouted despite the preventative treatment ([4]; 130 L/Ha pure benzyl alcohol): no | Plants sprouted despite the preventative treatment ([4]; 150 L/Ha pure benzyl alcohol): no | Quantity of benzyl alcohol (sprinkling) that prevents sprouting ([5]; preventative soil sprinkling): 130 L/Ha | Plants sprouted despite the preventative treatment ([5]; 50 L/ha pure benzyl alcohol): yes | Plants sprouted despite the preventative treatment ([5]; 70 L/Ha pure benzyl alcohol): yes | Plants sprouted despite the preventative treatment ([5]; 110 L/Ha pure benzyl alcohol): yes | Plants sprouted despite the preventative treatment ([5]; 120 L/Ha pure benzyl alcohol): yes | Plants sprouted despite the preventative treatment ([5]; 130 L/Ha pure benzyl alcohol): no | Plants sprouted despite the preventative treatment ([5]; 150 L/Ha pure benzyl alcohol): no | Quantity of benzyl alcohol (sprinkling) that prevents sprouting ([6]; preventative soil sprinkling): 110 L/Ha | Plants sprouted despite the preventative treatment ([6]; 50 L/ha pure benzyl alcohol): yes | Plants sprouted despite the preventative treatment ([6]; 70 L/Ha pure benzyl alcohol): yes | Plants sprouted despite the preventative treatment ([6]; 110 L/Ha pure benzyl alcohol): no | Plants sprouted despite the preventative treatment ([6]; 120 L/Ha pure benzyl alcohol): no | Plants sprouted despite the preventative treatment ([6]; 130 L/Ha pure benzyl alcohol): no | Plants sprouted despite the preventative treatment ([6]; 150 L/Ha pure benzyl alcohol): no | Quantity of benzyl alcohol (sprinkling) that prevents sprouting ([7]; preventative soil sprinkling): 110 L/Ha | Plants sprouted despite the preventative treatment ([7]; 50 L/ha pure benzyl alcohol): yes | Plants sprouted despite the preventative treatment ([7]; 70 L/Ha pure benzyl alcohol): yes | Plants sprouted despite the preventative treatment ([7]; 110 L/Ha pure benzyl alcohol): no | Plants sprouted despite the preventative treatment ([7]; 120 L/Ha pure benzyl alcohol): no | Plants sprouted despite the preventative treatment ([7]; 130 L/Ha pure benzyl alcohol): no | Plants sprouted despite the preventative treatment ([7]; 150 L/Ha pure benzyl alcohol): no | Collapsing of treated plant (score and time): time to pass from score 5 (T0) to score 1 [8]: 1 to 24 h | Colour intensity of treated plant (score and time): time to pass from score 5 (T0) to score 1 [8]: 1 to 24 h | Diameter of treated plant (score and time): time to pass from score 5 (T0) to score 1 [8]: 1 to 24 h
